{
  "source": "patent US11504382B2",
  "about": "“Tricyclic inhibitors of Hepatitis B virus” (Antios Therapeutics, Inc., priority 2018, dated 2022)",
  "data": [
    {"system": "HBV", "assay": "HBV inhibition assay in HepAD38 cells (extracellular HBV DNA by direct qPCR)", "assay_type": "cell-based, Hepatitis B virus", "settings": "0.05 μM, 96 hours, relative to non-treated reference", "values": [
      {"smiles": "CCOC(=O)N1CC2COc3c(cn(C)c3C(=O)Nc3ccc(F)c(C(F)F)c3)S(=O)(=O)NC2C1", "note": "(single isomer, unassigned) [Example E43, Ethyl 8-((3-(difluoromethyl)-4-fluorophenyl)carbamoyl)-7-methyl-3a,4,10,10a-tetrahydro-1H,7H-dipyrrolo[3,4-b:3′,4′-f][1,4,5]oxathiazocine-2(3H)-carboxylate 5,5-dioxide (Chiral 3aS,10aS or 3aR,10aR - Stereochemistry unknown)]", "Anti HBV Activity (conc μM)": "A (0.05) (HBV inhibition greater than 50% at the concentration indicated in the table)"},
      {"smiles": "CCOC(=O)N1CC2COc3c(cn(C)c3C(=O)Nc3ccc(F)c(C#N)c3)S(=O)(=O)NC2C1", "note": "(single isomer, unassigned) [Example E45, Ethyl 8-((3-cyano-4-fluorophenyl)carbamoyl)-7-methyl-3a,4,10,10a-tetrahydro-1H,7H-dipyrrolo[3,4-b:3′,4′-f][1,4,5]oxathiazocine-2(3H)-carboxylate 5,5-dioxide (Chiral 3aS,10aS or 3aR,10aR - Stereochemistry unknown)]", "Anti HBV Activity (conc μM)": "A (0.05) (HBV inhibition greater than 50% at the concentration indicated in the table)"}
    ]},
    {"system": "HBV", "assay": "HBV inhibition assay in HepAD38 cells (extracellular HBV DNA by direct qPCR)", "assay_type": "cell-based, Hepatitis B virus", "settings": "0.1 μM, 96 hours, relative to non-treated reference", "values": [
      {"smiles": "CCOC(=O)N1CC2COc3c(cn(C)c3C(=O)Nc3ccc(F)c(C(F)F)c3)S(=O)(=O)NC2C1", "note": "(single isomer, unassigned) [Example E44, Ethyl 8-((3-(difluoromethyl)-4-fluorophenyl)carbamoyl)-7-methyl-3a,4,10,10a-tetrahydro-1H,7H-dipyrrolo[3,4-b:3′,4′-f][1,4,5]oxathiazocine-2(3H)-carboxylate 5,5-dioxide (Chiral 3aS,10aS or 3aR,10aR - Stereochemistry unknown)]", "Anti HBV Activity (conc μM)": "B (0.1) (HBV inhibition less than 50% at the concentration indicated in the table)"},
      {"smiles": "CCOC(=O)N1CC2COc3c(cn(C)c3C(=O)Nc3ccc(F)c(C#N)c3)S(=O)(=O)NC2C1", "note": "(single isomer, unassigned) [Example E46, Ethyl 8-((3-cyano-4-fluorophenyl)carbamoyl)-7-methyl-3a,4,10,10a-tetrahydro-1H,7H-dipyrrolo[3,4-b:3′,4′-f][1,4,5]oxathiazocine-2(3H)-carboxylate 5,5-dioxide (Chiral 3aS,10aS or 3aR,10aR - Stereochemistry unknown)]", "Anti HBV Activity (conc μM)": "B (0.1) (HBV inhibition less than 50% at the concentration indicated in the table)"}
    ]},
    {"system": "HBV", "assay": "HBV inhibition assay in HepAD38 cells (extracellular HBV DNA by direct qPCR)", "assay_type": "cell-based, Hepatitis B virus", "settings": "96 hours, 8-point dose-response curve, read-out: HBV inh EC50", "units": {"EC50": "nM"}, "values": [
      {"smiles": "CCOC(=O)N1CC2COc3c(cn(C)c3C(=O)Nc3ccc(F)c(C(F)F)c3)S(=O)(=O)NC2C1", "note": "(single isomer, unassigned) [Example E43, Ethyl 8-((3-(difluoromethyl)-4-fluorophenyl)carbamoyl)-7-methyl-3a,4,10,10a-tetrahydro-1H,7H-dipyrrolo[3,4-b:3′,4′-f][1,4,5]oxathiazocine-2(3H)-carboxylate 5,5-dioxide (Chiral 3aS,10aS or 3aR,10aR - Stereochemistry unknown)]", "EC50": "< 1000"},
      {"smiles": "CCOC(=O)N1CC2NS(=O)(=O)c3cn(C)c(C(=O)Nc4cc(F)c(F)c(F)c4)c3OCC2(C)C1", "note": "(single isomer, unassigned) [Example E91, Ethyl 7,10a-dimethyl-8-((3,4,5-trifluorophenyl)carbamoyl)-3a,4,10,10a-tetrahydro-1H,7H-dipyrrolo[3,4-b:3′,4′-f][1,4,5]oxathiazocine-2(3H)-carboxylate 5,5-dioxide (Chiral 3aS,10aS or 3aR,10aR - Stereochemistry unknown)]", "EC50": "< 1000"},
      {"smiles": "CCOC(=O)N1CC2NS(=O)(=O)c3cn(C)c(C(=O)Nc4cc(F)c(F)c(F)c4)c3OCC2(C)C1", "note": "(single isomer, unassigned) [Example E92, Ethyl 7,10a-dimethyl-8-((3,4,5-trifluorophenyl)carbamoyl)-3a,4,10,10a-tetrahydro-1H,7H-dipyrrolo[3,4-b:3′,4′-f][1,4,5]oxathiazocine-2(3H)-carboxylate 5,5-dioxide (Chiral 3aS,10aS or 3aR,10aR - Stereochemistry unknown)]", "EC50": "< 1000"},
      {"smiles": "CCOC(=O)N1CC2NS(=O)(=O)c3cn(C)c(C(=O)Nc4ccc(F)c(C)c4)c3OCC2(C)C1", "note": "(single isomer, unassigned) [Example E93, Ethyl 8-((4-fluoro-3-methylphenyl)carbamoyl)-7,10a-dimethyl-3a,4,10,10a-tetrahydro-1H,7H-dipyrrolo[3,4-b:3′,4′-f][1,4,5]oxathiazocine-2(3H)-carboxylate 5,5-dioxide (Chiral 3aS,10aS or 3aR,10aR - Stereochemistry unknown)]", "EC50": "< 1000"},
      {"smiles": "CCOC(=O)N1CC2NS(=O)(=O)c3cn(C)c(C(=O)Nc4ccc(F)c(C)c4)c3OCC2(C)C1", "note": "(single isomer, unassigned) [Example E94, Ethyl 8-((4-fluoro-3-methylphenyl)carbamoyl)-7,10a-dimethyl-3a,4,10,10a-tetrahydro-1H,7H-dipyrrolo[3,4-b:3′,4′-f][1,4,5]oxathiazocine-2(3H)-carboxylate 5,5-dioxide(Chiral 3aS,10aS or 3aR,10aR - Stereochemistryunknown)]", "EC50": "< 1000"},
      {"smiles": "Cc1nnc(C(=O)N2CC3NS(=O)(=O)c4cn(C)c(C(=O)Nc5ccc(F)c(C)c5)c4OCC3(C)C2)o1", "note": "(single isomer, unassigned) [Example E95, N-(4-fluoro-3-methylphenyl)-7,10a-dimethyl-2-(5-methyl-1,3,4-oxadiazole-2-carbonyl)-2,3,3a,4,10,10a-hexahydro-1H,7H-dipyrrolo[3,4-b:3′,4′-f][1,4,5]oxathiazocine-8-carboxamide 5,5-dioxide (Chiral 3aS,10aS or 3aR,10aR - Stereochemistry unknown)]", "EC50": "< 1000"},
      {"smiles": "Cc1nnc(C(=O)N2CC3NS(=O)(=O)c4cn(C)c(C(=O)Nc5ccc(F)c(C)c5)c4OCC3(C)C2)o1", "note": "(single isomer, unassigned) [Example E96, N-(4-fluoro-3-methylphenyl)-7,10a-dimethyl-2-(5-methyl-1,3,4-oxadiazole-2-carbonyl)-2,3,3a,4,10,10a-hexahydro-1H,7H-dipyrrolo[3,4-b:3′,4′-f][1,4,5]oxathiazocine-8-carboxamide 5,5-dioxide (Chiral 3aS,10aS or 3aR,10aR - Stereochemistry unknown)]", "EC50": "< 1000"}
    ]},
    {"system": "HBV", "assay": "HBV inhibition assay in HepAD38 cells (extracellular HBV DNA by direct qPCR)", "assay_type": "cell-based, Hepatitis B virus", "settings": "Hepatitis B virus, 0.05 μM, 96 hours, relative to non-treated reference, read-out: Anti HBV Activity (conc μM)", "units": {"inhibition at 0.05 µM": "%"}, "values": [
      {"smiles": "Cc1cc(NC(=O)c2c3c(cn2C)S(=O)(=O)NC2CNCC2CO3)ccc1F", "note": "(stereo not drawn) [Example E47, cis-N-(4-fluoro-3-methylphenyl)-7-methyl-2,3,3a,4,10,10a-hexahydro-1H,7H-dipyrrolo[3,4-b:3′,4′-f][1,4,5]oxathiazocine-8-carboxamide 5,5-dioxide hydroiodide]", "inhibition at 0.05 µM": "> 50"}
    ]},
    {"system": "HBV", "assay": "HBV inhibition assay in HepAD38 cells (extracellular HBV DNA by direct qPCR)", "assay_type": "cell-based, Hepatitis B virus", "settings": "Hepatitis B virus, 0.1 μM, 96 hours, relative to non-treated reference, read-out: Anti HBV Activity (conc μM)", "units": {"inhibition at 0.1 µM": "%"}, "values": [
      {"smiles": "CCOC(=O)N1CC[C@H]2NS(=O)(=O)c3cn(C)c(C(=O)Nc4ccc(F)c(F)c4)c3OC[C@H]21", "note": "[Example E27, Ethyl (3aR,10aS)-8-((3,4-difluorophenyl)carbamoyl)-7-methyl-2,3,3a,4,10,10a-hexahydro-1H,7H-dipyrrolo[3,4-b:3′,2′-f][1,4,5]oxathiazocine-1-carboxylate 5,5-dioxide]", "inhibition at 0.1 µM": "< 50"},
      {"smiles": "Cn1cc2c(c1C(=O)Nc1ccc(F)c(F)c1)OCC1(C)CCCC1NS2(=O)=O", "note": "(stereo not shown) [Example E29, N-(3,4-difluorophenyl)-2,8a-dimethyl-5a,6,7,8,8a,9-hexahydro-2H,5H-cyclopenta[f]pyrrolo[3,4-b][1,4,5]oxathiazocine-1-carboxamide 4,4-dioxide]", "inhibition at 0.1 µM": "< 50"},
      {"smiles": "Cn1cc2c(c1C(=O)Nc1cc(F)c(F)c(F)c1)OC[C@@H]1CNC[C@@H]1NS2(=O)=O", "note": "[Example E36, 7-methyl-N-(3,4,5-trifluorophenyl)-2,3,3a,4,10,10a-hexahydro-1H,7H-dipyrrolo[3,4-b:3′,4′-f][1,4,5]oxathiazocine-8-carboxamide 5,5-dioxide (3aR,10aR)]", "inhibition at 0.1 µM": "< 50"}
    ]},
    {"system": "HBV", "assay": "HBV inhibition assay in HepAD38 cells (extracellular HBV DNA by direct qPCR)", "assay_type": "cell-based, Hepatitis B virus", "settings": "Hepatitis B virus, 1 μM, 96 hours, relative to non-treated reference, read-out: Anti HBV Activity (conc μM)", "units": {"inhibition at 1 µM": "%"}, "values": [
      {"smiles": "Cn1cc2c(c1C(=O)Nc1ccc(F)c(F)c1)OCC1CCCCN1S2(=O)=O", "note": "(stereo not shown) [Example E1, N-(3,4-difluorophenyl)-2-methyl-6,7,8,9,9a,10-hexahydro-2H-pyrido[1,2-e]pyrrolo[3,4-b][1,4,5]oxathiazepine-1-carboxamide 4,4-dioxide]", "inhibition at 1 µM": "< 50"},
      {"smiles": "Cn1cc2c(c1C(=O)Nc1ccc(F)c(F)c1)NCC1CCCCN1S2(=O)=O", "note": "(stereo not shown) [Example E2, N-(3,4-difluorophenyl)-2-methyl-2,6,7,8,9,9a,10,11-octahydropyrido[1,2-b]pyrrolo[3,4-f][1,2,5]thiadiazepine-1-carboxamide 4,4-dioxide]", "inhibition at 1 µM": "< 50"},
      {"smiles": "Cn1cc2c(c1C(=O)Nc1ccc(F)c(F)c1)OCC1CCN1S2(=O)=O", "note": "(stereo not shown) [Example E3, N-(3,4-difluorophenyl)-2-methyl-6,7,7a,8-tetrahydro-2H-azeto[1,2-e]pyrrolo[3,4-b][1,4,5]oxathiazepine-1-carboxamide 4,4-dioxide]", "inhibition at 1 µM": "> 50"},
      {"smiles": "Cn1cc2c(c1C(=O)Nc1ccc(F)c(F)c1)OC[C@H]1C[C@H](C1)NS2(=O)=O", "note": "[Example E5]", "inhibition at 1 µM": "< 50"}
    ]},
    {"system": "HBV", "assay": "HBV inhibition assay in HepAD38 cells (extracellular HBV DNA by direct qPCR)", "assay_type": "cell-based, Hepatitis B virus", "settings": "Hepatitis B virus, 96 hours, 8-point dose-response curve, read-out: HBV inh EC50", "units": {"EC50": "nM"}, "values": [
      {"smiles": "Cc1cc(NC(=O)c2c3c(cn2C)S(=O)(=O)N[C@@H]2CN(C(=O)OC(C)(C)C)C[C@H]2CO3)ccc1F", "note": "(single isomer, unassigned) [Example E151]", "EC50": "< 1000"},
      {"smiles": "Cc1cc(NC(=O)c2c3c(cn2C)S(=O)(=O)N[C@H]2CN(C(=O)OC(C)(C)C)C[C@@H]2CO3)ccc1F", "note": "(single isomer, unassigned) [Example E152]", "EC50": "< 1000"},
      {"smiles": "Cc1nnc(C(=O)N2C[C@H]3COc4c(cn(C)c4C(=O)Nc4ccc(F)c(C)c4)S(=O)(=O)N[C@@H]3C2)o1", "note": "(single isomer, unassigned) [Example E153]", "EC50": "< 1000"},
      {"smiles": "Cc1nnc(C(=O)N2C[C@@H]3COc4c(cn(C)c4C(=O)Nc4ccc(F)c(C)c4)S(=O)(=O)N[C@H]3C2)o1", "note": "(single isomer, unassigned) [Example E154]", "EC50": "< 1000"},
      {"smiles": "Cn1cc2c(c1C(=O)Nc1ccc(F)c(F)c1)OCC1CCCCN1S2(=O)=O", "note": "(stereo not shown) [Example E1, N-(3,4-difluorophenyl)-2-methyl-6,7,8,9,9a,10-hexahydro-2H-pyrido[1,2-e]pyrrolo[3,4-b][1,4,5]oxathiazepine-1-carboxamide 4,4-dioxide]", "EC50": "> 1000"},
      {"smiles": "Cn1cc2c(c1C(=O)Nc1ccc(F)c(F)c1)OCC1CCN1S2(=O)=O", "note": "(stereo not shown) [Example E3, N-(3,4-difluorophenyl)-2-methyl-6,7,7a,8-tetrahydro-2H-azeto[1,2-e]pyrrolo[3,4-b][1,4,5]oxathiazepine-1-carboxamide 4,4-dioxide]", "EC50": "< 1000"},
      {"smiles": "Cn1cc2c(c1C(=O)Nc1ccc(F)c(F)c1)OC[C@@H]1CCC[C@H]1NS2(=O)=O", "note": "[Example E8, (5aR,8aR)—N-(3,4-difluorophenyl)-2-methyl-5a,6,7,8,8a,9-hexahydro-2H,5H-cyclopenta[f]pyrrolo[3,4-b][1,4,5]oxathiazocine-1-carboxamide 4,4-dioxide]", "EC50": "< 1000"},
      {"smiles": "Cn1cc2c(c1C(=O)Nc1ccc(F)c(F)c1)OC[C@H]1CCC[C@@H]1NS2(=O)=O", "note": "[Example E9, (5aS,8aS)—N-(3,4-difluorophenyl)-2-methyl-5a,6,7,8,8a,9-hexahydro-2H,5H-cyclopenta[f]pyrrolo[3,4-b][1,4,5]oxathiazocine-1-carboxamide 4,4-dioxide]", "EC50": "< 1000"},
      {"smiles": "Cc1cc(NC(=O)c2c3c(cn2C)S(=O)(=O)NC2CNCC2CO3)ccc1F", "note": "(stereo not drawn) [Example E47, cis-N-(4-fluoro-3-methylphenyl)-7-methyl-2,3,3a,4,10,10a-hexahydro-1H,7H-dipyrrolo[3,4-b:3′,4′-f][1,4,5]oxathiazocine-8-carboxamide 5,5-dioxide hydroiodide]", "EC50": "< 1000"}
    ]}
  ]
}
